Data: PubChem BioAssay AID392 (SGCOxCompounds, 2006)

Biological target: Peroxisomal trans-2-enoyl-CoA reductase (Homo sapiens) (UniProt Q9BY49)
Assay: compound-induced PECR thermal stabilization – biophysical, human, DSF, SYPRO orange, NADP+ (AID 392)
Conditions: recombinant PECR, protein 2 µM, buffer 10 mM HEPES, pH 7.5, NaCl 150 mM, stronger effect = higher value

Chain of Peroxisomal trans-2-enoyl-CoA reductase (Homo sapiens) (Q9BY49 whole entry, looked up): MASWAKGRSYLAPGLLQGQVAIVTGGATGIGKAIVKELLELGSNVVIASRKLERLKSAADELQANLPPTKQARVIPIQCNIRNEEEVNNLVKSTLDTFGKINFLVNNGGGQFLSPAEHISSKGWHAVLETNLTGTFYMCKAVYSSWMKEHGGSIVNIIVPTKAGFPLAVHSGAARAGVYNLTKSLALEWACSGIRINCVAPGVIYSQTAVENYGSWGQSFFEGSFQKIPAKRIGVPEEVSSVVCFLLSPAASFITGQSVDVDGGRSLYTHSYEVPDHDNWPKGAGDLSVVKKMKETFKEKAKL

Structure (SMILES)	Tm shift (at 10 µM, NADP 200 µM) [Celsius]	Tm shift (at 100 µM, NADP+ 200 µM) [Celsius]	also measured
O=c1oc2cc(O)ccc2c2oc3cc(O)ccc3c12	2.2		
O=C1Nc2ccccc2C1=O		6.4	
C[C@@]12CCC3=C(CCc4cc(O)ccc43)[C@H]1CCC2=C(F)F		3.7	
O=C1C2(Cl)C3(Cl)C4(Cl)C(Cl)(Cl)C5(Cl)C3(Cl)C1(Cl)C5(Cl)C24Cl (stereo not drawn)		3.1	
O=C(C1CCN(S(=O)(=O)c2ccc(Br)s2)CC1)N1CCN(C(c2ccccc2)c2ccc(Cl)cc2)CC1 (stereo not drawn)	2.1		
NC(=O)c1ccc[n+](C2OC(COP(=O)(O)OP(=O)(O)OCC3OC(n4cnc5c(N)ncnc54)C(O)C3O)C(O)C2O)c1 (stereo not drawn)	2.2		
NC(=O)c1ccc[n+](C2OC(COP(=O)(O)OP(=O)(O)OCC3OC(n4cnc5c(N)ncnc54)C(OP(=O)(O)O)C3O)C(O)C2O)c1 (stereo not drawn)	2.2		
CCc1nnc(NS(=O)(=O)c2ccc(NC(=O)/C=C/c3ccc(F)cc3)cc2)s1	2.4		
C[C@@]12CCC3=C(CCc4cc(O)ccc43)[C@]13C[C@@H]3CC2=C(F)F		23.8	
CCCCCCCCCC(=O)SCCNC(=O)CCNC(=O)C(O)C(C)(C)COP(=O)(O)OP(=O)(O)OCC1OC(n2cnc3c(N)ncnc32)C(O)C1OP(=O)(O)O (stereo not drawn)		4.1	
O=C(C1CCC(CNS(=O)(=O)c2ccc(Br)s2)CC1)N1CCN(C(c2ccccc2)c2ccc(Cl)cc2)CC1 (stereo not drawn)	2.3		
O=C(O[C@@H]1Cc2c(O)cc(O)cc2O[C@H]1c1ccc(O)c(O)c1)c1cc(O)c(O)c(O)c1			Tm shift (at 10 µM, NADP+ 200 µM): 12.6 Celsius
C=CC1=C(C)/C(=C/c2[nH]c(Cc3[nH]c(/C=C4\NC(=O)C(C)=C4C=C)c(C)c3CCC(=O)O)c(CCC(=O)O)c2C)NC1=O		10	
